Measurements taken from US10308647B2, “Fused imidazole derivatives as IDO/TDO inhibitors” (SciFluor Life Sciences, Inc., priority 2015, dated 2019).

Experiments:
recombinant IDO1 = recombinant IDO1 (Homo sapiens, UniProt P14902); experiment: IDO1 enzymatic assay (UV absorption, N-formylkynurenine formation); assay type: biochemical; details: for IC50: 40 nM IDO1, 900 μM tryptophan, 180 min, room temperature, read-out: Enzyme IDO IC50; for Enzyme IDO IC50 ratio compared to Cmpd 2: IC50 of compound divided by IC50 of reference compound 2
recombinant IDO1, sequence (P14902 whole entry, species assumed): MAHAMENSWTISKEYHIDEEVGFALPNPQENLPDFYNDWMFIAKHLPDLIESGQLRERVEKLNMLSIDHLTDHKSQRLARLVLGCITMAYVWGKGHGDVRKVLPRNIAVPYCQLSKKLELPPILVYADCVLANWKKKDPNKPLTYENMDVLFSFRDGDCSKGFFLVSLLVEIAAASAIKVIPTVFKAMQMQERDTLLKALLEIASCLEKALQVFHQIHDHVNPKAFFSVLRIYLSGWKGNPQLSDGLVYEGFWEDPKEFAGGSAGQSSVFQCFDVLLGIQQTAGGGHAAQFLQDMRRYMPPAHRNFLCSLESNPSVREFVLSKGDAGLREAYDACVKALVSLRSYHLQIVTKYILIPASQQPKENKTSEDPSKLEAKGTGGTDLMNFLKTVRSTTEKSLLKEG
Protocol: (§1) The assay was performed by UV absorption using either recombinant IDO1 or TDO2 and L-Tryptophan as substrate. The UV absorption signal at 321 nm was correlated with the amount of N-formylkynurenine reaction product of IDO1 and TDO2.
(§2) The compounds of the present application were diluted in 10% DMSO and 5 μl of the dilution was added to a 100 μl reaction so that the final concentration of DMSO is 0.5% in all reactions.
IDO1 Assay: All of the reactions were conducted at room temperature. The 100 μl reaction mixture in IDO Assay Buffer contains 40 nM IDO1, the indicated amount of the compound, 900 μM tryptophan, and the coupled reaction components. The reaction mixture was incubated for 180 min prior to reading of the UV absorption signal. For the negative control (blank), 5 μl of the assay buffer was added instead of the IDO1.
(§3) Absorption signals were measured using a Tecan Infinite M1000 plate reader.
(§4) Data analysis: Binding experiments were performed in duplicate at each concentration. The data were analyzed using the computer software, Graphpad Prism. In the absence of the compound, the absorption signal (At) in each data set was defined as 100% activity. In the absence of the IDO1, the absorption signal (Ab) in each data set was defined as 0% activity. The percent activity in the presence of each compound was calculated according to the following equation: % activity=[(A−Ab)/(At−Ab)]×100, where A=the absorption signal in the presence of the compound. The percent inhibition was calculated according to the following equation: % inhibition=100−% activity. The values of % activity versus a series of compound concentrations were then plotted using non-linear regression analysis of Sigmoidal dose-response curve generated with the equation Y=B+(T−B)/1+10^((LogIC50−X)×Hill Slope), where Y=percent activity, B=minimum percent activity, T=maximum percent activity, X=logarithm of compound and Hill Slope=slope factor or Hill coefficient. The IC50 value was determined by the concentration causing a half-maximal percent activity.

recombinant TDO2 = recombinant TDO2 (Homo sapiens, UniProt P48775); experiment: TDO2 enzymatic assay (UV absorption, N-formylkynurenine formation); assay type: biochemical; details: for IC50: 50 nM TDO2, 200 μM tryptophan, 60 min, room temperature, read-out: Enzyme TDO IC50; for Enzyme TDO IC50 ratio compared to Ref. Cmpd 1: IC50 of compound divided by IC50 of Ref. Cmpd 1
recombinant TDO2, sequence (P48775 whole entry, species assumed): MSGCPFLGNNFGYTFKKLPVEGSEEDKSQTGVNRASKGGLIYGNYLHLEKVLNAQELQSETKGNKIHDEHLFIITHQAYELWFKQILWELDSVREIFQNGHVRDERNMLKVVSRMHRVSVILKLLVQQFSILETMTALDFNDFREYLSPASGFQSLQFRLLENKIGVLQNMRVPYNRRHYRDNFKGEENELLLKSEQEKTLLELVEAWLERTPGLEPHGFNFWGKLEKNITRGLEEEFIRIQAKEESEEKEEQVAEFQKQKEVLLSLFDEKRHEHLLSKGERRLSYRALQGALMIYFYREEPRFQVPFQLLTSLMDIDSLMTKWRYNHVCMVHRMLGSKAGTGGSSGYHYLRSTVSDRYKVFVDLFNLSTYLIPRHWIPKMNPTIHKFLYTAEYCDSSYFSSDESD
Protocol: as §1, §2
TDO2 Assay: All of the reactions were conducted at room temperature. The 100 μl reaction mixture in TDO2 Assay Buffer contains 50 nM TDO2, the indicated amount of the compound, 200 μM tryptophan, and the coupled reaction components. The reaction mixture was incubated for 60 min prior to reading of the UV absorption signal. For the negative control (blank), 5 μl of the assay buffer was added instead of the TDO2.
as §3
as §4, with “The percent inhibition was calculated according to the following equation: % inhibition=100−% activity.” left out

Structure (SMILES) | IC50 (recombinant IDO1) | Enzyme IDO IC50 ratio compared to Cmpd 2 (recombinant IDO1) | IC50 (recombinant TDO2) | Enzyme TDO IC50 ratio compared to Ref. Cmpd 1 (recombinant TDO2)
O[C@@H](C[C@H]1Cn2cncc2-c2ccccc21)C1CCCCC1 (racemic) [Cmpd 305] | 0.328 µM | 8.00 | 0.166 µM | 0.78
O[C@@H](C[C@@H]1Cn2cncc2-c2ccccc21)C1CCCCC1 (racemic) [Cmpd 306] | 1.2 µM | 29.27 | 0.286 µM | 1.35
OC(CC1(C(F)(F)F)c2ccccc2-c2cncn21)C1CCCCC1 (single isomer, unassigned) [Cmpd 290] | > 100 µM |  |  | 18.75
OC(CC1Cc2ccccc2-c2cncn21)C1CCCCC1 (centres unmarked) [Cmpd 278] | 0.149 µM | 3.47 | 0.165 µM | 0.43
OC(CC1CCc2ccccc2-c2cncn21)C1CCCCC1 (centres unmarked) [Cmpd 279] | 7.1 µM | 165.12 | 2.36 µM | 6.21
OC(CC1(C(F)(F)F)c2ccccc2-c2cncn21)C1CCCCC1 (centres unmarked) [Cmpd 291] | > 100 µM |  | 26 µM | 16.25
OC1CCC(C(O)CC2(C(F)(F)F)c3c(F)cccc3-c3cncn32)CC1 (centres unmarked) [Cmpd 292] | > 100 µM |  | > 100 µM | 
OC1CCC(C(O)CC2(C(F)(F)F)c3c(F)cccc3-c3cncn32)CC1 (centres unmarked) [Cmpd 293] | > 100 µM |  | > 100 µM | 
CC1c2ccccc2-c2cncn2C1C(O)C1CCCCC1 (centres unmarked) [Cmpd 294] | > 30 µM |  | > 30 µM | 
CC1c2ccccc2-c2cncn2C1C(O)C1CCCCC1 (centres unmarked) [Cmpd 295] | 14.5 µM | 216.42 | 8.4 µM | 8.40
CC1(CC(O)C2CCCCC2)c2ccccc2-c2cncn21 (centres unmarked) [Cmpd 296] | 13.1 µM | 195.52 | 2.3 µM | 2.30
OC(CC1c2ccccc2Cc2cncn21)C1CCCCC1 (centres unmarked) [Cmpd 297] | 14 µM | 129.63 | 2.2 µM | 6.90
OC1c2ccccc2C(CC(O)C2CCCCC2)n2cncc21 (centres unmarked) [Cmpd 298] | > 30 µM |  | > 30 µM | 
FC(CC1Cc2ccccc2-c2cncn21)C1CCCCC1 (centres unmarked) [Cmpd 301] | 0.133 µM | 1.51 | 0.096 µM | 0.12
OC(CCc1c(F)cccc1-c1c[nH]cn1)C1CCCCC1 (centres unmarked) [Cmpd 302] | 19.9 µM | 226.14 | 15.5 µM | 19.33
OC(/C=C/c1c(F)cccc1-c1c[nH]cn1)C1CCCCC1 (centres unmarked) [Cmpd 303] | > 30 µM |  | 9.2 µM | 11.47
OC(C1CCCCC1)C1CC1c1c(F)cccc1-c1c[nH]cn1 (centres unmarked) [Cmpd 304] | 12.5 µM | 142.05 | 3.1 µM | 3.87
FC(CC1Cn2cncc2-c2ccccc21)C1CCCCC1 (centres unmarked) [Cmpd 307] | 0.299 µM | 7.29 | 0.052 µM | 0.25
OC(CC1C(O)c2ccccc2-c2cncn21)C1CCCCC1 (centres unmarked) [Cmpd 308] | 23 µM | 442.31 | 14.2 µM | 62.28
OC(CC1C(O)c2ccccc2-c2cncn21)C1CCCCC1 (centres unmarked) [Cmpd 309] | 5.5 µM | 105.77 | 7.6 µM | 33.33
OC1CCC(C(F)CC2Cc3ccccc3-c3cncn32)CC1 (centres unmarked) [Cmpd 310] | 1.2 µM | 32.43 | 1.9 µM | 5.67
FC(CC1Cc2ccccc2-c2cncn21)C1CCCCC1 (centres unmarked) [Cmpd 311] | 0.31 µM | 8.38 | 0.111 µM | 0.33
FC(CC1Cc2ccccc2-c2cncn21)C1CCCCC1 (centres unmarked) [Cmpd 312] | 0.049 µM | 1.32 | 0.078 µM | 0.23
